Test results taken from the supplement of paper PMC12463676, “Small-molecule dissolution of stress granules by redox modulation benefits ALS models” (Nature Chemical Biology, 2025).

How the values were obtained:
lipoamide = compound: NC(=O)CCCCC1CCSS1 [lipoamide]; experiment: thermal stability z-score vs DMSO; higher = more thermally stabilized by treatment; details: HeLa, lipoamide concentration 100 µM
Experimental: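 Cellular thermal proteome profiling in HeLa cells. Cells were treated with 100 µM lipoamide for 1 h, with or without 1 mM arsenate for a further 1 h, then heated to ten temperatures (37-66.3 °C), and soluble protein was quantified by TMT mass spectrometry relative to 0.1% DMSO controls. The thermal stability score (sum of log2 fold changes minus the abundance score) was transformed to a z-score; mean of n = 3 experiments.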

potassium arsenate = compound: O=[As]([O-])(O)O.[K+] [potassium arsenate]; experiment: as above; details: HeLa; arsenate concentration 1 mM
Experimental: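 Cellular thermal proteome profiling in HeLa cells treated with 1 mM arsenate for 1 h (DMSO pretreatment), heated to ten temperatures (37-66.3 °C). Soluble protein was quantified by TMT mass spectrometry relative to DMSO controls; the thermal stability score was transformed to a z-score; mean of n = 3 experiments.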

[1] = arsenate co-treatment: 1 mM arsenate 1 h
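Also: each temperature applied for 3 min, abundance score taken as mean log2 fold change at the two lowest temperatures, z-score obtained by mean subtraction and division by SD.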

Sequence of UniProt Q9H8V3 (Q9H8V3 whole entry): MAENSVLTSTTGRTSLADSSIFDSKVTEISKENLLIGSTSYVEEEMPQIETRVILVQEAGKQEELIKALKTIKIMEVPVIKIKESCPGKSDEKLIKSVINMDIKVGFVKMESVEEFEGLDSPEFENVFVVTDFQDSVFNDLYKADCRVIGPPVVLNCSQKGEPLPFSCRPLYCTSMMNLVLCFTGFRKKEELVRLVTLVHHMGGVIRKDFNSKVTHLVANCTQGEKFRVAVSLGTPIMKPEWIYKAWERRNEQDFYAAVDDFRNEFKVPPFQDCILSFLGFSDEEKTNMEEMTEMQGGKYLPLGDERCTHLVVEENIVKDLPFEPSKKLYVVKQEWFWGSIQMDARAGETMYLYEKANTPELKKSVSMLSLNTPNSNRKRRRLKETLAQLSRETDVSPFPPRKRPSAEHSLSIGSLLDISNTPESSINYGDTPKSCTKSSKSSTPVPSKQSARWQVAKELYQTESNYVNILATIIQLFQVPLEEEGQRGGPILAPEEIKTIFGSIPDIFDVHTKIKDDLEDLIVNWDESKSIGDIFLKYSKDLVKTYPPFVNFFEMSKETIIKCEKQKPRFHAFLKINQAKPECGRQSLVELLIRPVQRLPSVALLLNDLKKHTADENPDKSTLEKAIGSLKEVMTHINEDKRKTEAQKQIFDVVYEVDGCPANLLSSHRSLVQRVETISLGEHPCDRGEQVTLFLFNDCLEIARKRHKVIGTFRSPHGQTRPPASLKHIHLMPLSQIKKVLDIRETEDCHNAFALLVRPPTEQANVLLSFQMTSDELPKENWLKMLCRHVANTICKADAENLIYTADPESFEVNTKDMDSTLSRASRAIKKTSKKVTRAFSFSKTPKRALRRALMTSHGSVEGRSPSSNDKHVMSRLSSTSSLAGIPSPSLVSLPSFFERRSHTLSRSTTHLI
Sequence of UniProt Q68CP9 (Q68CP9 whole entry): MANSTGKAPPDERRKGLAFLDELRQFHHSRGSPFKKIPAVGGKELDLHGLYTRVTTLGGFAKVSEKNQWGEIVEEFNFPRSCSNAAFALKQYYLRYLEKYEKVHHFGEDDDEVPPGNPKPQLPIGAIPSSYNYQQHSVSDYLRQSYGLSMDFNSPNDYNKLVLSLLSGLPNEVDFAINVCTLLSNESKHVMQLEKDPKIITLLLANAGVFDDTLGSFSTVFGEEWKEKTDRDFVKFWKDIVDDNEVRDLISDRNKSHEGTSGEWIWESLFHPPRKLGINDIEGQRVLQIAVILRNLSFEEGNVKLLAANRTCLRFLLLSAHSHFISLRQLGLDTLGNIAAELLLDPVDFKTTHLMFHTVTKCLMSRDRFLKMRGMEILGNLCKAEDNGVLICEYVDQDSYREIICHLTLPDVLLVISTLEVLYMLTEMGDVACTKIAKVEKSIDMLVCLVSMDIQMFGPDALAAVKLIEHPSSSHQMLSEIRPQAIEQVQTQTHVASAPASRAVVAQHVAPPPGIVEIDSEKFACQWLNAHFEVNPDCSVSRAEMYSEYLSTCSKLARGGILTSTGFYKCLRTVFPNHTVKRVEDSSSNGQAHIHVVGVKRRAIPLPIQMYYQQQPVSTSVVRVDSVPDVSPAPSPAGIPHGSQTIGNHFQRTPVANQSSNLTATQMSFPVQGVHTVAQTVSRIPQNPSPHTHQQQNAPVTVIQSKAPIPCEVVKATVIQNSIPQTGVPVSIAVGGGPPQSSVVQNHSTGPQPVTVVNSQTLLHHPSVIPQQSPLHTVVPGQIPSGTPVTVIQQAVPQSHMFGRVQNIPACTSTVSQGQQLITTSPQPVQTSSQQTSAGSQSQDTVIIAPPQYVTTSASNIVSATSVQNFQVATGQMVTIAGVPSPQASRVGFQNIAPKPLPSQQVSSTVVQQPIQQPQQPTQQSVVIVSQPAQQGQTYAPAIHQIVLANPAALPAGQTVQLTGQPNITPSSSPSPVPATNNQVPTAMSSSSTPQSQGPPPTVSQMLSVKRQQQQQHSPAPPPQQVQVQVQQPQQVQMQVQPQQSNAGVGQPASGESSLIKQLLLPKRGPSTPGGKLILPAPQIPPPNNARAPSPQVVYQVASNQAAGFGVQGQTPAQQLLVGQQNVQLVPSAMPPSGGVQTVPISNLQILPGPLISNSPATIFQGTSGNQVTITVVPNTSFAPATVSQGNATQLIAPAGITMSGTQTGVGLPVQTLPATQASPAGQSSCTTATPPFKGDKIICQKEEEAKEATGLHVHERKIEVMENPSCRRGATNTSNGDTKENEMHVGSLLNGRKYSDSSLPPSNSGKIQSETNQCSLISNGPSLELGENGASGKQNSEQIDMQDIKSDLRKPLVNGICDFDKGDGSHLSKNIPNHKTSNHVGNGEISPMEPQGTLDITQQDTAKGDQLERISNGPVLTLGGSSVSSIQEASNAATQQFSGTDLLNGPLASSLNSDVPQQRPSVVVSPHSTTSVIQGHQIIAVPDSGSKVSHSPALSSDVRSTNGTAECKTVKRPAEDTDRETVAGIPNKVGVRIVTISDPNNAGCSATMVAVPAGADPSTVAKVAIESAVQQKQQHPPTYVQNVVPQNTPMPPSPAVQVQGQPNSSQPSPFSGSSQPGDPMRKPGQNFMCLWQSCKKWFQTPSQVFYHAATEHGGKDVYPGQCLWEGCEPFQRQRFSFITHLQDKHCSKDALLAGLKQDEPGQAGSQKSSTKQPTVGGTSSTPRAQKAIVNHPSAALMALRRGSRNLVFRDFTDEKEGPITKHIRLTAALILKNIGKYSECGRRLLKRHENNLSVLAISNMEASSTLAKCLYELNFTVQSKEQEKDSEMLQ
Sequence of UniProt Q71SY5 (Q71SY5 whole entry): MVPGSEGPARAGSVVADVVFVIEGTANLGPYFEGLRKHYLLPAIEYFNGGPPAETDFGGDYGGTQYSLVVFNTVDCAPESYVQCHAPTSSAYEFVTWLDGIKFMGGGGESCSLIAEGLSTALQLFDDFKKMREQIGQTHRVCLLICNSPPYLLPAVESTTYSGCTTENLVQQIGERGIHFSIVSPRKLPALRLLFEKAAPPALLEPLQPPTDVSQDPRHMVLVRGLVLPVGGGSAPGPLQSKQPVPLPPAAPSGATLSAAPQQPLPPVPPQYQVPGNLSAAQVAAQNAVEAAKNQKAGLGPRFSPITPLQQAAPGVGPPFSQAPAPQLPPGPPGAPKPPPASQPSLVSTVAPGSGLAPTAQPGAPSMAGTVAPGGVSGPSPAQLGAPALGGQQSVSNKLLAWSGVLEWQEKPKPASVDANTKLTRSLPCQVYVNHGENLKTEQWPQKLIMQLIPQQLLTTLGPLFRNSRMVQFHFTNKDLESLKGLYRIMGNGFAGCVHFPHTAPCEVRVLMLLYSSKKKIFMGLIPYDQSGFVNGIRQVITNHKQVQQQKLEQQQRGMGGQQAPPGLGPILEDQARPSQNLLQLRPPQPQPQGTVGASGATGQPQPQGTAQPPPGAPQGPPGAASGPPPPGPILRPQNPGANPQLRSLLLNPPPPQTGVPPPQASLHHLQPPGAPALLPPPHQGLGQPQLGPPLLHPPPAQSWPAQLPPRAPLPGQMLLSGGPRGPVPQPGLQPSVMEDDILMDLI
Sequence of UniProt P11047 (P11047 whole entry): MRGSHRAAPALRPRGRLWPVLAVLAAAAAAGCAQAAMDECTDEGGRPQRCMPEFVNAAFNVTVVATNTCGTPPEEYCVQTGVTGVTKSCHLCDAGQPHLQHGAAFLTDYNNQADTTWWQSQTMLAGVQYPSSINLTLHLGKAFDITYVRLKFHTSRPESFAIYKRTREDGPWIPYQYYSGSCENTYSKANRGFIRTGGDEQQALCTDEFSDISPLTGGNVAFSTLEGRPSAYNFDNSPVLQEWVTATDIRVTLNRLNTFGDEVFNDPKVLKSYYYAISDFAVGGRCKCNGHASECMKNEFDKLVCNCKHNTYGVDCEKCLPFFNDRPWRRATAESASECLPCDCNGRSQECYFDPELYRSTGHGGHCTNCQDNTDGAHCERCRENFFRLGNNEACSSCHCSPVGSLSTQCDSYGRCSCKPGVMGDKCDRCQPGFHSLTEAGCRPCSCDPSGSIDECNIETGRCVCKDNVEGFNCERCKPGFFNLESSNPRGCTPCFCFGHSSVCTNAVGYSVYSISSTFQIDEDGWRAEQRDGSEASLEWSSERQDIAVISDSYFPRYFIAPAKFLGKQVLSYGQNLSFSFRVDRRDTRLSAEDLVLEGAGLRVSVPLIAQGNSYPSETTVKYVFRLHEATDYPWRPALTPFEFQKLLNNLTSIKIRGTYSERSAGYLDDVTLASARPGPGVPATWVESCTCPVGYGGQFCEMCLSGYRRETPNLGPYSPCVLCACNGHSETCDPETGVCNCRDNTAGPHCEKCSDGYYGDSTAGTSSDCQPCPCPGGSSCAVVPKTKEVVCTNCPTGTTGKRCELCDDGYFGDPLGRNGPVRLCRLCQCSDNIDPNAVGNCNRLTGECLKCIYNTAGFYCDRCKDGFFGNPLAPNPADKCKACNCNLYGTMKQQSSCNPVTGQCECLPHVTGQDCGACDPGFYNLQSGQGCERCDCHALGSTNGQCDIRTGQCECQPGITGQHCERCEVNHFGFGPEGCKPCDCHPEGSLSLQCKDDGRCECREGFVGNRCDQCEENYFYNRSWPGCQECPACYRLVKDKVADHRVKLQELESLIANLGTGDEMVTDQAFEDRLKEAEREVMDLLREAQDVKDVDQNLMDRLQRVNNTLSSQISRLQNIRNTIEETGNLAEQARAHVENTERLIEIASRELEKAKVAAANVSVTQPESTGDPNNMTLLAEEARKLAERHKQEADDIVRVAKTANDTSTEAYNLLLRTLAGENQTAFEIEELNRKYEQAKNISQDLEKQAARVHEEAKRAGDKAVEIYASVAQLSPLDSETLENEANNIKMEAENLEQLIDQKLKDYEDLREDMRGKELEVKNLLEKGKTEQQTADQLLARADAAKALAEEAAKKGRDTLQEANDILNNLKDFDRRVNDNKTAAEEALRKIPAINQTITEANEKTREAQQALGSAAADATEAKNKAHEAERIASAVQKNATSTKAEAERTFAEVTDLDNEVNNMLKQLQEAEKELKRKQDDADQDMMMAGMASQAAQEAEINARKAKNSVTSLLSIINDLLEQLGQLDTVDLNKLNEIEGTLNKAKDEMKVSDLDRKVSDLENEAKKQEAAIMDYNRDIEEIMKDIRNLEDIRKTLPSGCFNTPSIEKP

Target	thermal stability z-score (lipoamide; [1])	thermal stability z-score (lipoamide; arsenate co-treatment: none)	thermal stability z-score (potassium arsenate)
LRRC45 (UniProt Q96CN5)	-0.00638	0.0708	0.0892
C15ORF38|ARPIN	-0.167	0.382	0.206
RRM2 (UniProt P31350)	0.385	0.731	0.674
SDCBP (UniProt O00560)	0.541	0.425	0.364
SPIN1 (UniProt Q9Y657)	0.0956	0.212	-0.0902
RPL22 (UniProt P35268)	-0.122	-0.292	-0.98
SRR (UniProt Q9GZT4)	-0.139	-0.118	-0.393
MTX1 (UniProt Q13505)	-0.275	0.061	0.421
TRAPPC9 (UniProt Q96Q05)	0.0964	-0.258	0.167
KDELC1 (UniProt Q6UW63)	-2.9	-2.19	0.422
ASB9 (UniProt Q96DX5)	0.263	0.826	-0.202
HNRNPH2 (UniProt P55795)	-0.319	-0.0126	-0.224
RXRA (UniProt P19793)	0.08	0.208	-0.255
VPS25 (UniProt Q9BRG1)	-0.593	-0.349	0.0183
RPS3A (UniProt P61247)	0.23	0.114	-0.818
RPP40 (UniProt O75818)	0.705	-0.123	-1.15
AIMP1 (UniProt Q12904)	0.288	0.163	0.717
UGGT1 (UniProt Q9NYU2)	-3.22	-2.7	0.639
CEP44 (UniProt Q9C0F1)	0.18	0.0577	0.0867
TTC28 (UniProt Q96AY4)	-0.0855	-0.0784	-0.0135
EIF2A (UniProt Q9BY44)	0.673	0.102	1.13
MICALL2 (UniProt Q8IY33)	-0.157	0.00775	-0.0438
GTF2B (UniProt Q00403)	-0.0775	0.338	-1.93
SIRT1 (UniProt Q96EB6)	-0.368	-0.379	-0.922

Target	thermal stability z-score (lipoamide; [1])	thermal stability z-score (lipoamide; arsenate co-treatment: none)	thermal stability z-score (potassium arsenate)
ATF7IP (UniProt Q6VMQ6)	0.974	0.0822	-0.304
DISP1 (UniProt Q96F81)	0.342	0.512	-1.07
RCC1 (UniProt P18754)	-0.231	-0.0308	-0.548
PHKB (UniProt Q93100)	0.125	0.135	0.278
GSTT2|GSTT2B|EM	0.517	0.277	-0.23
HELB (UniProt Q8NG08)	-0.468	-0.74	-0.671
SKIV2L (UniProt Q15477)	-0.147	-0.384	0.2
ZBTB33 (UniProt Q86T24)	-0.0938	-0.0683	-0.107
ECT2 (UniProt Q9H8V3)	-0.0726	-0.00204	-0.475
NACA	0.468	0.47	0.508
LARP1 (UniProt Q6PKG0)	0.375	0.88	1.03
ATP5C1 (UniProt P36542)	-0.36	-0.306	-0.252
C9ORF64 (UniProt Q5T6V5)	-0.191	0.121	-0.254
TCP1 (UniProt P17987)	-0.0358	-0.0779	-0.229
CHD6 (UniProt Q8TD26)	-8.33e-05	-0.00133	-0.0483
PCCA (UniProt P05165)	0.202	0.198	-0.314
SGPL1 (UniProt O95470)	0.442	0.255	-0.584
MRPL19 (UniProt P49406)	-0.287	-0.00717	0.274
SF3A3 (UniProt Q12874)	0.351	0.639	-0.503
SNRPA (UniProt P09012)	0.0421	-0.126	0.938
PEPD (UniProt P12955)	0.359	0.112	-0.732
RPS5 (UniProt P46782)	0.607	0.458	-0.546
TCEB1 (UniProt Q15369)	-0.0847	-0.122	-0.0354
VKORC1L1 (UniProt Q8N0U8)	0.529	-0.318	0.544

Target	thermal stability z-score (lipoamide; [1])	thermal stability z-score (lipoamide; arsenate co-treatment: none)	thermal stability z-score (potassium arsenate)
UNC119 (UniProt Q13432)	0.0331	0.106	-0.0734
BORCS5|LOH12CR1	1.36	1.29	0.518
MED25 (UniProt Q71SY5)	-0.264	-0.252	0.0488
SLC46A1 (UniProt Q96NT5)	-0.375	0.408	-1.24
ARHGAP12 (UniProt Q8IWW6)	-0.578	-0.344	0.668
EIF3H (UniProt O15372)	-0.579	-0.608	0.162
PPP1R7 (UniProt Q15435)	0.128	-0.182	-0.488
GSTZ1 (UniProt O43708)	-0.243	0.0552	0.239
TMEM63A (UniProt O94886)	-0.739	-0.0217	-0.159
FOXP4 (UniProt Q8IVH2)	-0.605	-0.281	0.363
EDC4 (UniProt Q6P2E9)	-0.258	0.0716	-0.454
P4HA2 (UniProt O15460)	-3.73	-3.49	0.573
SLFN5 (UniProt Q08AF3)	-0.884	-1.21	-0.568
MIS18A (UniProt Q9NYP9)	-0.127	0.246	0.683
PEA15 (UniProt Q15121)	0.388	0.243	0.716
ANXA8L1 (UniProt Q5VT79)	-0.11	-0.0845	0.00565
ZNF330 (UniProt Q9Y3S2)	-0.367	-0.417	-0.558
NPTX1 (UniProt Q15818)	-3.62	-3.29	0.869
LSS (UniProt P48449)	0.724	0.345	-0.00616
UBE2R2 (UniProt Q712K3)	0.8	0.536	-0.279
PCBP2 (UniProt Q15366)	-0.426	-0.239	0.141
CUTA (UniProt O60888)	1.1	0.709	-0.0462
LAMC1 (UniProt P11047)	-2.97	-2.6	1.15
ARID2 (UniProt Q68CP9)	0.136	0.254	-0.234
